{"source": "patent US12509559B2", "about": "“Bacterial beta-lactamase responsive hydrogels” (Brown University, priority 2019, dated 2025)", "origin": "cited, not measured here", "conditions": "adamantane in β-cyclodextrin cavity"}
{"smiles": "C1C2CC3CC1CC(C2)C3", "note": "[adamantane]", "values": [{"measurement": "association constant, K", "value": "~10^5 M^−1"}]}
